Assay results from US6706740B2, “Fungicidal heterocyclic aromatic amides and their compositions, methods of use and preparation” (Dow AgroSciences LLC, priority 1999, dated 2004).
Read-outs that look alike come from different tables or passages of the source.

Assays:
[1] = system: Magnaporthe grisea (Pyricularia oryzae—PYRIOR); experiment: microbe, parasite or virus in culture; format: cell-based; conditions: Pyricularia oryzae, read-out: PYRIOR in vitro Growth Inhibition
[2] = system: Rhizoctonia solani (RHIZSO); experiment: microbe, parasite or virus in culture; format: cell-based; conditions: Rhizoctonia solani, read-out: RHIZSO in vitro Growth Inhibition
[3] = system: Mycosphaerella graminicola (Septoria tritici—SEPTTR); experiment: In vitro fungal growth inhibition, Mycosphaerella graminicola (SEPTTR); format: cell-based; conditions: Zymoseptoria tritici, read-out: SEPTTR in vitro Growth Inhibition
[4] = system: Stagonospora nodorum (Leptosphaeria nodorum—LEPTNO); experiment: In vitro fungal growth inhibition, Stagonospora nodorum (LEPTNO); format: cell-based; conditions: Leptosphaeria, read-out: LEPTNO in vitro Growth Inhibition
Ustilago maydis (USTIMA) = experiment: microbe, parasite or virus in culture; format: cell-based; conditions: Mycosarcoma maydis, read-out: USTIMA in vitro Growth Inhibition
[5] = system: Phytophthora infestans (PHYTIN); experiment: microbe, parasite or virus in culture; format: cell-based; conditions: Phytophthora infestans, read-out: PHYTIN in vitro Growth Inhibition
[6] = system: Phytophthora infestans—PHYTIN; experiment: whole plant or invertebrate; format: in vivo; conditions: Phytophthora, in Solanum lycopersicum, 24 h, read-out: PHYTIN in vivo 1 Day Protectant
[7] = system: Puccinia recondita—PUCCRT; experiment: Brown Rust of Wheat, in vivo whole plant, 24 Hour Protectant; conditions: for pest or weed control at 100 ppm: Puccinia, read-out: PUCCRT in vivo 1 Day Protectant
Erysiphe graminis—ERYSGT = experiment: Powdery Mildew of Wheat, in vivo whole plant, 24 Hour Protectant; conditions: Erysiphe, read-out: ERYSGT in vivo 1 Day Protectant
Septoria tritici—SEPTTR = experiment: Leaf Blotch of Wheat, in vivo whole plant, 24 Hour Protectant; conditions: for pest or weed control at 100 ppm: Zymoseptoria tritici, 24 h, control of fungal infection vs untreated plants, read-out: SEPTTR in vivo 1 Day Protectant
[8] = system: Leptosphaeria nodorum—LEPTNO; experiment: Glume Blotch of Wheat, in vivo whole plant, 24 Hour Protectant; conditions: for pest or weed control at 100 ppm: Leptosphaeria, read-out: LEPTNO in vivo 1 Day Protectant
[9] = wheat plants sprayed at 100 ppm, inoculated after 24 hours, control of fungal infection vs untreated plants
[10] = wheat plants sprayed at 100 ppm, inoculated after 24 hours
[11] = 100 ppm spray, wheat, 24 hour protectant, control of fungal infection vs untreated plants
[12] = 100 ppm spray, wheat, 24 hour protectant
[13] = 100 ppm spray, wheat, 24 hour protectant, % control of fungal infection vs untreated plants

SMILES | inhibition at 25 ppm [1] [%] | inhibition at 25 ppm [2] [%] | inhibition at 25 ppm ([3]; 25 ppm in the growth medium) [%] | inhibition at 25 ppm ([4]; 25 ppm in the growth medium) [%] | inhibition at 25 ppm (Ustilago maydis (USTIMA)) [%] | inhibition at 25 ppm [5] [%] | pest or weed control at 100 ppm [6] [%] | pest or weed control at 100 ppm (Erysiphe graminis—ERYSGT; [9]) [%] | pest or weed control at 100 ppm (Septoria tritici—SEPTTR; [10]) [%] | pest or weed control at 100 ppm [8, 9] [%] | melting point | pest or weed control at 100 ppm [7, 9] [%] | inhibition at 25 ppm ([3]; 25 ppm in growth medium) [%] | inhibition at 25 ppm ([4]; 25 ppm in growth medium) [%] | pest or weed control at 100 ppm [7, 11] [%] | pest or weed control at 100 ppm (Erysiphe graminis—ERYSGT; [11]) [%] | pest or weed control at 100 ppm (Septoria tritici—SEPTTR; [12]) [%] | also measured
Cc1ccnc(C(=O)N[C@H]2COC(=O)[C@H](Cc3ccccc3)[C@@H](OC(=O)C(C)C)[C@H](C)OC2=O)c1OC(=O)C(C)C [Compound 572] | < 80 | < 80 | < 80 | < 80 | < 80 | < 80 | < 25 | < 25 | 25 to 74 | 25 to 74 | 163 to 166 °C |  |  |  |  |  |  | PUCCRT in vivo 1 Day Protectant [7, 9]: + +
COc1ccnc(C(=O)Nc2ccc(Oc3ccc(C(F)(F)F)cn3)cc2)c1O [Compound 462] | > 80 | < 80 | > 80 | < 80 | < 80 | < 80 | < 25 | < 25 | 25 to 74 | 25 to 74 | 141 to 143 °C | 25 to 74 |  |  |  |  |  | 
COc1ccnc(C(=O)Nc2ccc(Nc3cccc(C(F)(F)F)c3)cc2)c1O [Compound 410] | < 80 | < 80 |  |  | < 80 | < 80 | < 25 |  |  |  | 204 to 205 °C |  | < 80 | < 80 | < 25 | < 25 | < 25 | pest or weed control at 100 ppm [8, 11]: 25 to 74%
COc1ccnc(C(=O)N[C@H]2COC(=O)[C@H](Cc3ccccc3)[C@@H](OC(=O)c3ccccc3)[C@H](C)OC2=O)c1O [Compound 394] | < 80 | < 80 |  |  | < 80 | < 80 | < 25 |  |  |  | 181 to 185 °C |  | > 80 | > 80 | 25 to 74 | < 25 | 25 to 74 | LEPTNO in vivo 1 Day Protectant [8, 11]: + +
CCOc1ccnc(C(=O)NC2COC(=O)[C@H](Cc3ccccc3)[C@@H](OC(=O)C(C)C)[C@H](C)OC2=O)c1O (stereo partly drawn) [Compound 475] | > 80 | < 80 | > 80 | > 80 | < 80 | < 80 | < 25 | < 25 | 25 to 74 |  | 168 to 172 °C | 25 to 74 |  |  |  |  |  | LEPTNO in vivo 1 Day Protectant [8, 9]: + +
Cc1ncc(C(=O)N[C@H]2COC(=O)[C@H](Cc3ccccc3)[C@@H](OC(=O)C(C)C)[C@H](C)OC2=O)c(O)n1 [Compound 542] | < 80 | < 80 | < 80 | < 80 | < 80 | < 80 | < 25 | < 25 | 25 to 74 | < 25 | 220 °C (dec.) | < 25 |  |  |  |  |  | 
CC1(C)CC(NC(=O)c2nscc2O)CC(C)(C)C1 [Compound 549] | < 80 | < 80 | > 80 | < 80 | < 80 | > 80 | < 25 | < 25 | 25 to 74 | 25 to 74 | 121 to 125 °C | < 25 |  |  |  |  |  | 
COc1ccnc(C(=O)Nc2ccc(Sc3cccc(C(F)(F)F)c3)cc2)c1OC(C)=O [Compound 711] | > 80 | < 80 |  |  | < 80 | < 80 | < 25 |  |  |  | 134 to 136 °C |  | > 80 | > 80 |  |  |  | pest or weed control at 100 ppm [7, 13]: < 25%; pest or weed control at 100 ppm (Erysiphe graminis—ERYSGT; [13]): < 25%; SEPTTR in vivo 1 Day Protectant (Septoria tritici—SEPTTR; [13]): + +; pest or weed control at 100 ppm [8, 13]: 25 to 74%
CC(C)C(=O)O[C@H]1[C@H](C)OC(=O)[C@@H](NC(=O)c2cnn(C)c2O)COC(=O)[C@@H]1Cc1ccccc1 [Compound 556] | < 80 | < 80 | < 80 | < 80 | < 80 | > 80 | < 25 | < 25 | < 25 | 25 to 74 | 195 °C (dec.) | 25 to 74 |  |  |  |  |  | 
COc1ccnc(C(=O)Nc2ccc(OC3CC(C)(C)CC(C)(C)C3)cc2)c1O [Compound 458] | < 80 | < 80 |  |  | < 80 | < 80 | < 25 |  |  |  | 141 to 142 °C |  | < 80 | > 80 | 25 to 74 | < 25 | < 25 | LEPTNO in vivo 1 Day Protectant [8, 11]: + +
COc1ccnc(C(=O)Nc2ccc(NC(=O)c3cccc(C(F)(F)F)c3)cc2)c1O [Compound 453] | < 80 | < 80 |  |  | < 80 | < 80 | < 25 |  |  |  | 240 to 242 °C |  | < 80 | < 80 | < 25 | < 25 | 25 to 74 | pest or weed control at 100 ppm [8, 11]: 25 to 74%
